According to patent publication US9839642B2, “Beta-tetrazolyl-propionic acids as metallo-beta-lactamase inhibitors” (priority 2014, dated 2017):
Read-outs that look alike come from different tables or passages of the source.

Key:
IMP-1 = IMP-1 (Serratia marcescens, UniProt P52699); assay: Enzyme activity: determination of IC50, fluorescence assay with CCF2-FA substrate; format: biochemical; details: CCF2-FA 1.25 μM, 2 hours at 25° C., read-out: IMP1 IC50
Outline: (§1)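 Enzyme at 1 pM (NDM-1), 2 pM (IMP-1) or 30 pM (VIM-1) was incubated with inhibitor (20 μM to 0.00063 μM) and 1.25 μM CCF2-FA in 100 mM KH2PO4 pH 7, 0.005% Tween-20, 10 μM ZnSO4 for 2 hours at 25° C. Fluorescence was read at ex 405/em 460 nm; IC50 from 4-parameter fit.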

NDM-1 = NDM-1 (Klebsiella pneumoniae, UniProt C7C422); assay: as above; format: biochemical; details: CCF2-FA 1.25 μM, 2 hours at 25° C., read-out: NDM1 IC50
Outline: as §1

VIM-1 = VIM-1 (Pseudomonas aeruginosa, UniProt A0A0F7KYQ8); assay: as above; format: biochemical; details: CCF2-FA 1.25 μM, 2 hours at 25° C., read-out: VIM1 IC50
Outline: as §1

[1] = tested on: Escherichia coli expressing NDM-1 (CLB30016); assay: Antibiotic potentiation activity: synergistic concentration (MITC95) with imipenem, growth by OD600; format: cell-based
Outline: (§2)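 Colonies from overnight agar plates (35 °C) were suspended in saline and diluted 1:100 into 1.1× CAMHB. Inhibitor (final 200 μM to 0.195 μM) was combined with imipenem at 1 or 4 μg/ml, incubated 22–24 h at 35 °C, and absorbance read; MITC95 is the lowest inhibitor concentration giving 95% growth inhibition.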

[2] = tested on: Klebsiella pneumoniae expressing VIM-1 (IHMA599644); assay: as above; format: cell-based
Outline: as §2

[3] = tested on: Serratia marcescens expressing IMP-1 (CL5741); assay: as above; format: cell-based
Outline: as §2

[4] = E. coli CLB30016 (NDM-1), 95% inhibition of growth
[5] = K. pneumoniae IHMA599644 (VIM-1), 95% inhibition of growth
[6] = S. marcescens CL5741 (IMP-1), 95% inhibition of growth
[7] = 95% inhibition of bacterial growth, strain CLB30016
[8] = 95% inhibition of bacterial growth, strain IHMA599644
[9] = 95% inhibition of bacterial growth, strain CL5741

Sequence of NDM-1 (C7C422 29-270, looked up, species assumed): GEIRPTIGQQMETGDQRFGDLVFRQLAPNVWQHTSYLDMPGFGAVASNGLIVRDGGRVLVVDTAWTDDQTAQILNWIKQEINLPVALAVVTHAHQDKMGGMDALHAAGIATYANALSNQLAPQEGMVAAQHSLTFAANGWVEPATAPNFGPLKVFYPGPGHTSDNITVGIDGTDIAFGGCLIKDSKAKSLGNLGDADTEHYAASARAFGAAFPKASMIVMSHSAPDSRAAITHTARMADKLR
Sequence of IMP-1 (P52699 19-246, looked up, species assumed): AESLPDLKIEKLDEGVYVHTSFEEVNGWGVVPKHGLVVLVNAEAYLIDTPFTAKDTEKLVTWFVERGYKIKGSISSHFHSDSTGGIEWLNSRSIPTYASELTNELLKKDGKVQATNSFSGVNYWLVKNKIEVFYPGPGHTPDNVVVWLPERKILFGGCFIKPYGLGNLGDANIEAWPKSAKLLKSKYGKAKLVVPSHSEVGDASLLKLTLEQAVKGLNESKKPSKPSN

Q: Which results are given for `CCC[C@H](C(=O)O)[C@H](Cc1ccccc1-c1cccc(C(N)=O)c1)c1nn[nH]n1` [Example 399, (2S)-2-[(1S)-2-(3′-carbamoylbiphenyl-2-yl)-1-(2H-tetrazol-5-yl)ethyl]pentanoic acid]?
A: IC50 (IMP-1; IMP-1 enzyme 2 pM): 430 nM; IC50 (NDM-1; NDM-1 enzyme 1 pM): 1.4 nM; IC50 (VIM-1; VIM-1 enzyme 30 pM): 1.6 nM; NDM1 EC30016 MITC95 [1, 4]: 6.2 µM; VIM1 KP599644 MITC95 [2, 5]: 25 µM; IMP1 SM5741 MITC95 [3, 6]: 25 µM

Q: With `CCC[C@H](C(=O)O)[C@H](Cc1ccc(C(=O)NCC2CC2)cc1)c1nnn[nH]1` [Example 282, (2S)-2-[(1S)-2-{4-[(cyclopropylmethyl)carbamoyl]phenyl}-1-(1H-tetrazol-5-yl)ethyl]pentanoic acid] as the molecule, how does the IC50 (IMP-1; IMP-1 enzyme 2 pM) read?
A: Its IC50 is 730 nM.

Q: What about the IC50 (NDM-1; NDM-1 enzyme 1 pM) of the same molecule?
A: The IC50 was 98 nM.

Q: What about the IC50 (VIM-1; VIM-1 enzyme 30 pM) of the same molecule?
A: The IC50 was 19 nM.

Q: And the “NDM1 EC30016 MITC95” value [1, 4]?
A: The value was 18.8 µM.

Q: What about the “VIM1 KP599644 MITC95” value [2, 5] of the same molecule?
A: The value was 50 µM.

Q: What about the “IMP1 SM5741 MITC95” value [3, 6] of the same molecule?
A: The value was 50 µM.

Q: With `CC(C)C[C@H](C(=O)O)[C@H](Cc1ccc(N2CC(N)C2)nc1)c1nnn[nH]1` [Example 327, (2S)-2-[(1S)-2-[6-(3-aminoazetidin-1-yl)pyridin-3-yl]-1-(1H-tetrazol-5-yl)ethyl]-4-methylpentanoic acid] as the molecule, how does the IC50 (IMP-1; IMP-1 enzyme 2 pM) read?
A: Its IC50 is 2600 nM.

Q: What about the IC50 (NDM-1; NDM-1 enzyme 1 pM) of the same molecule?
A: Its IC50 is 470 nM.

Q: And the IC50 (VIM-1; VIM-1 enzyme 30 pM)?
A: Its IC50 is 17 nM.

Q: What about the “NDM1 EC30016 MITC95” value [1, 4] of the same molecule?
A: The value was 9.4 µM.

Q: What about the “VIM1 KP599644 MITC95” value [2, 5] of the same molecule?
A: Its value is 38 µM.

Q: And the “IMP1 SM5741 MITC95” value [3, 6]?
A: Its value is 38 µM.

Q: `CC(C)C[C@H](C(=O)O)[C@H](Cc1ccc(C2CCNCC2)cc1)c1nnn[nH]1` [Example 102, (S)-4-methyl-2-((S)-2-(4-(piperidin-4-yl)phenyl)-1-(1H-tetrazol-5-yl)ethyl)pentanoic acid] was tested. Which IC50 (IMP-1; enzyme 2 pM) did it give?
A: Its IC50 is 72 nM.

Q: And the IC50 (NDM-1; enzyme 1 pM)?
A: Its IC50 is 40 nM.

Q: What about the IC50 (VIM-1; enzyme 30 pM) of the same molecule?
A: The IC50 was 5.3 nM.

Q: And the “NDM1 EC30016 MITC95” value [1, 7]?
A: Its value is 12.5 µM.

Q: And the “VIM1 KP599644 MITC95” value [2, 8]?
A: The value was 37 µM.

Q: And the “IMP1 SM5741 MITC95” value [3, 9]?
A: The value was 2.3 µM.

Q: For `CCC[C@H](C(=O)O)[C@H](Cc1ccc(N2CCN(c3ccccc3)CC2)cc1)c1nn[nH]n1` [Example 226, (2S)-2-[(1S)-2-[4-(4-phenylpiperazin-1-yl)phenyl]-1-(2H-tetrazol-5-yl)ethyl]pentanoic acid], which IC50 (IMP-1; enzyme 2 pM) is on record?
A: The IC50 was 39 nM.

Q: And the IC50 (NDM-1; enzyme 1 pM)?
A: Its IC50 is 20 nM.

Q: What about the IC50 (VIM-1; enzyme 30 pM) of the same molecule?
A: Its IC50 is 66 nM.

Q: And the “NDM1 EC30016 MITC95” value [1, 7]?
A: The value was 38 µM.

Q: What about the “VIM1 KP599644 MITC95” value [2, 8] of the same molecule?
A: The value was greater than 200 µM.

Q: And the “IMP1 SM5741 MITC95” value [3, 9]?
A: The value was 3.1 µM.

Q: Which IC50 (IMP-1; enzyme 2 pM) does the source give for `CC(C)[C@H](C(=O)O)[C@H](Cc1ccc(N2CCC[C@H]2CO)nc1)c1nnn[nH]1` [Example 126, (2S,3S)-4-(6-((S)-2-(hydroxymethyl)pyrrolidin-1-yl)pyridin-3-yl)-2-isopropyl-3-(1H-tetrazol-5-yl)butanoic acid] here?
A: The IC50 was 530 nM.

Q: And the IC50 (NDM-1; enzyme 1 pM)?
A: Its IC50 is 63 nM.

Q: What about the IC50 (VIM-1; enzyme 30 pM) of the same molecule?
A: Its IC50 is 34 nM.

Q: What about the “NDM1 EC30016 MITC95” value [1, 7] of the same molecule?
A: Its value is 6.2 µM.

Q: What about the “VIM1 KP599644 MITC95” value [2, 8] of the same molecule?
A: The value was 50 µM.

Q: And the “IMP1 SM5741 MITC95” value [3, 9]?
A: Its value is 25 µM.

Q: `CC(C)(C)C(C(=O)O)[C@H](Cc1ccc(C2CCNC2)nc1)c1nnn[nH]1.O=C(O)C(F)(F)F` (stereo partly drawn) [Example 430, 3-(5-((2S)-3-carboxy-4,4-dimethyl-2-(1H-tetrazol-5-yl)pentyl)pyridin-2-yl)pyrrolidin-1-ium 2,2,2-trifluoroacetate] was tested. Which IC50 (IMP-1; IMP-1 enzyme 2 pM) did it give?
A: The IC50 was 544 nM.

Q: And the IC50 (NDM-1; NDM-1 enzyme 1 pM)?
A: The IC50 was 620 nM.

Q: And the IC50 (VIM-1; VIM-1 enzyme 30 pM)?
A: The IC50 was 52.6 nM.

Q: What about the “NDM1 EC30016 MITC95” value [1, 4] of the same molecule?
A: The value was 12.5 µM.

Q: What about the “VIM1 KP599644 MITC95” value [2, 5] of the same molecule?
A: The value was 25 µM.

Q: What about the “IMP1 SM5741 MITC95” value [3, 6] of the same molecule?
A: Its value is 25 µM.

Q: `CC(C)C[C@H](C(=O)O)[C@H](Cc1ccc(C2=CCC(N)CC2)c(F)c1)c1nn[nH]n1` (stereo partly drawn) [Example 455, 4′-((2S,3S)-3-carboxy-5-methyl-2-(2H-tetrazol-5-yl)hexyl)-2′-fluoro-2,3,4,5-tetrahydro-[1,1′-biphenyl]-4-aminium 2,2,2-trifluoroacetate] was tested. Which IC50 (IMP-1; IMP-1 enzyme 2 pM) did it give?
A: The IC50 was 23.9 nM.

Q: And the IC50 (NDM-1; NDM-1 enzyme 1 pM)?
A: Its IC50 is 23.4 nM.

Q: What about the IC50 (VIM-1; VIM-1 enzyme 30 pM) of the same molecule?
A: The IC50 was 3.38 nM.

Q: And the “NDM1 EC30016 MITC95” value [1, 4]?
A: Its value is 4.688 µM.

Q: And the “VIM1 KP599644 MITC95” value [2, 5]?
A: The value was 18.75 µM.

Q: What about the “IMP1 SM5741 MITC95” value [3, 6] of the same molecule?
A: Its value is 3.125 µM.

Q: How did the IC50 (IMP-1; enzyme 2 pM) turn out when `CC(C)C[C@H](C(=O)O)[C@H](Cc1ccc(N)cn1)c1nnn[nH]1` [Example 113, 5-amino-2-((2S,3S)-3-carboxy-5-methyl-2-(2H-tetrazol-5-yl)hexyl)pyridin-1-ium 2,2,2-trifluoroacetate] was run?
A: Its IC50 is 2100 nM.

Q: And the IC50 (NDM-1; enzyme 1 pM)?
A: Its IC50 is 130 nM.

Q: What about the IC50 (VIM-1; enzyme 30 pM) of the same molecule?
A: Its IC50 is 79 nM.

Q: And the “NDM1 EC30016 MITC95” value [1, 7]?
A: The value was 0.78 µM.

Q: And the “VIM1 KP599644 MITC95” value [2, 8]?
A: Its value is 9.4 µM.

Q: And the “IMP1 SM5741 MITC95” value [3, 9]?
A: The value was 18.8 µM.

Q: What does the source list for `Nc1ccc(C[C@H](c2nnn[nH]2)[C@H](CC(F)(F)F)C(=O)O)cn1` [Example 435, (S)-2-((S)-2-(6-aminopyridin-3-yl)-1-(1H-tetrazol-5-yl)ethyl)-4,4,4-trifluorobutanoic acid]?
A: IC50 (IMP-1; IMP-1 enzyme 2 pM): 7740 nM; IC50 (NDM-1; NDM-1 enzyme 1 pM): 432 nM; IC50 (VIM-1; VIM-1 enzyme 30 pM): 13.6 nM; NDM1 EC30016 MITC95 [1, 4]: 0.7813 µM; VIM1 KP599644 MITC95 [2, 5]: 2.344 µM; IMP1 SM5741 MITC95 [3, 6]: 50 µM
